Experimental data reported in PubChem BioAssay AID330 (DTP/NCI, 2004).
Values joined by “and” are separate entries in the source; they are usually repeats but may differ in a detail not shown here. Equal values may be shown once. Inconclusive results and toxic doses are left out. The calls were made as follows: active = survival T/C of 150% or more; inactive = T/C below 125% in these data.

Tested on: P388 leukemia ip, CD2F1 mice, survival T/C
Assay: NCI In Vivo Anticancer Drug Screen. Data for tumor model P388 Leukemia (intraperitoneal) in CD2F1 (CDF1) mice
Conditions: endpoint: median survival time, higher = longer survival
How it was run: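 Mice carrying the transplanted tumor received test compound or vehicle. Survival was recorded in each group, and the value is the treated-group measurement divided by that of the vehicle-treated control group.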

[1] = dose: 60.0 mg/kg/injection, schedule: Q01DX005 (ip), vehicle: saline with Tween-80
[2] = dose: 120.0 mg/kg/injection, schedule: Q01DX005 (ip), vehicle: saline with Tween-80
[3] = dose: 240.0 mg/kg/injection, schedule: Q01DX005 (ip), vehicle: saline with Tween-80
[4] = dose: 15.0 mg/kg/injection, schedule: Q01DX005 (ip), vehicle: saline with Tween-80
[5] = dose: 30.0 mg/kg/injection, schedule: Q01DX005 (ip), vehicle: saline with Tween-80
[6] = dose: 50.0 mg/kg/injection, schedule: Q01DX009 (ip), vehicle: saline
[7] = dose: 60.0 mg/kg/injection, schedule: Q01DX005 (ip), vehicle: saline
[8] = dose: 120.0 mg/kg/injection, schedule: Q01DX005 (ip), vehicle: saline
[9] = dose: 240.0 mg/kg/injection, schedule: Q01DX005 (ip), vehicle: saline
[10] = dose: 50.0 mg/kg/injection, schedule: Q01DX005 (ip), vehicle: Klucel (hydroxypropylcellulose) (HPC)
[11] = dose: 100.0 mg/kg/injection, schedule: Q01DX005 (ip), vehicle: Klucel (hydroxypropylcellulose) (HPC)
[12] = dose: 200.0 mg/kg/injection, schedule: Q01DX005 (ip), vehicle: Klucel (hydroxypropylcellulose) (HPC)
[13] = dose: 100.0 mg/kg/injection, schedule: Q01DX001 (ip), vehicle: saline
[14] = dose: 200.0 mg/kg/injection, schedule: Q01DX001 (ip), vehicle: saline
[15] = dose: 400.0 mg/kg/injection, schedule: Q01DX001 (ip), vehicle: saline
[16] = dose: 100.0 mg/kg/injection, schedule: Q04DX003 (ip), vehicle: saline
[17] = dose: 50.0 mg/kg/injection, schedule: Q01DX005 (ip), vehicle: saline with Tween-80
[18] = dose: 100.0 mg/kg/injection, schedule: Q01DX005 (ip), vehicle: saline with Tween-80
[19] = dose: 200.0 mg/kg/injection, schedule: Q01DX005 (ip), vehicle: saline with Tween-80
[20] = dose: 25.0 mg/kg/injection, schedule: Q04DX003 (ip), vehicle: saline
[21] = dose: 50.0 mg/kg/injection, schedule: Q04DX003 (ip), vehicle: saline

Measured: T/C

COCC1OC(OC2C3=C(C(C)C)CCC3(C)/C=C3\C(CCC3(O)COC)C(C)C2O)C(O)C2OC3OC12OC3(C)C1CO1 (stereo not drawn)
inactive: dose: 1.5 mg/kg/injection, schedule: Q01DX009 (ip), vehicle: Klucel (hydroxypropylcellulose) (HPC) 96 % of control | dose: 3.0 mg/kg/injection, schedule: Q01DX009 (ip), vehicle: Klucel (hydroxypropylcellulose) (HPC) 113 % of control | dose: 6.0 mg/kg/injection, schedule: Q01DX009 (ip), vehicle: Klucel (hydroxypropylcellulose) (HPC) 91 % of control | dose: 12.0 mg/kg/injection, schedule: Q01DX009 (ip), vehicle: Klucel (hydroxypropylcellulose) (HPC) 97 % of control | dose: 24.0 mg/kg/injection, schedule: Q01DX009 (ip), vehicle: Klucel (hydroxypropylcellulose) (HPC) 100 % of control

OCCN1CCN(C2=Nc3cccnc3Nc3cscc32)CC1
inactive: [1] 101 % of control | [2] 111 % of control | [3] 96 % of control

O=c1oc2ccc(Br)cc2cc1-n1nnc2ccccc21
inactive: [4] 88 % of control | [5] 93 % of control | [1] 88 % of control and 90 % of control | [2] 86 % of control and 97 % of control | [3] 97 % of control

CCOC(=O)NCCCCC([NH-])C(=O)O.CCOC(=O)NCCCCC([NH-])C(=O)O.[Cu+2] (stereo not drawn)
inactive: [6] 101 % of control | dose: 100.0 mg/kg/injection, schedule: Q01DX009 (ip), vehicle: saline 92 % of control

CC(C)N(c1cc(=O)nc2ccccn12)C(C)C
inactive: [7] 101 % of control | [8] 98 % of control | [9] 100 % of control

[B-][N+]1(C)CC[N+]([B-])(C)CC1 (stereo not drawn)
inactive: dose: 5.0 mg/kg/injection, schedule: Q01DX009 (ip), vehicle: saline with Tween-80 90 % of control | dose: 10.0 mg/kg/injection, schedule: Q01DX009 (ip), vehicle: saline with Tween-80 95 % of control | dose: 20.0 mg/kg/injection, schedule: Q01DX009 (ip), vehicle: saline with Tween-80 90 % of control

CC(C)CC(NC(=O)OCCc1ccccn1)C(=O)NC(Cc1ccccc1)C(=O)OC(C)(C)C (stereo not drawn)
inactive: dose: 60.0 mg/kg/injection, schedule: Q01DX005 (ip), vehicle: Klucel (hydroxypropylcellulose) (HPC) 101 % of control | dose: 120.0 mg/kg/injection, schedule: Q01DX005 (ip), vehicle: Klucel (hydroxypropylcellulose) (HPC) 95 % of control | dose: 240.0 mg/kg/injection, schedule: Q01DX005 (ip), vehicle: Klucel (hydroxypropylcellulose) (HPC) 94 % of control

Cc1nc(Cl)c2[nH]c(Cl)nc2n1
inactive: [10] 102 % of control | [11] 102 % of control | [12] 100 % of control

COc1ccc(CCNC2(C#N)CCCCC2)cc1OC
inactive: dose: 50.0 mg/kg/injection, schedule: Q01DX009 (ip), vehicle: Klucel (hydroxypropylcellulose) (HPC) 98 % of control | dose: 100.0 mg/kg/injection, schedule: Q01DX009 (ip), vehicle: Klucel (hydroxypropylcellulose) (HPC) 102 % of control

C(=C\c1csnn1)/c1ccc(/C=C/c2csnn2)cc1
inactive: [1] 100 % of control | [2] 100 % of control | [3] 100 % of control

CC(C)SC(=S)Nc1ccc(F)cc1
inactive: dose: 50.0 mg/kg/injection, schedule: Q01DX009 (ip), vehicle: suspension in saline 101 % of control | dose: 100.0 mg/kg/injection, schedule: Q01DX009 (ip), vehicle: suspension in saline 101 % of control | dose: 200.0 mg/kg/injection, schedule: Q01DX009 (ip), vehicle: suspension in saline 107 % of control

CN(C)C(=O)NC1CCC2CCCCC2C1 (stereo not drawn)
inactive: [13] 100 % of control | [14] 99 % of control | [15] 98 % of control

CCOC(/C=C/c1ccccc1)OCC
inactive: [16] 104 % of control | dose: 200.0 mg/kg/injection, schedule: Q04DX003 (ip), vehicle: saline 104 % of control

COC(=O)c1cc(-c2ccc(O)c(OC)c2)n2c(NC(=O)Nc3ccc(Cl)cc3)nnc2n1
inactive: [1] 91 % of control | [2] 91 % of control | [3] 91 % of control

OCCCOCCCOCCCOCCCO
inactive: [13] 101 % of control | [14] 108 % of control | [15] 101 % of control

Cn1nc(C(N)=O)c(=O)[nH]c1=O
inactive: [17] 104 % of control | [18] 97 % of control | [19] 103 % of control

Cc1ccc(Br)c(C(O)(C(F)(F)F)C(F)(F)F)c1
inactive: dose: 100.0 mg/kg/injection, schedule: Q01DX001 (ip), vehicle: other 103 % of control and 104 % of control | dose: 200.0 mg/kg/injection, schedule: Q01DX001 (ip), vehicle: other 101 % of control | dose: 400.0 mg/kg/injection, schedule: Q01DX001 (ip), vehicle: other 111 % of control and 108 % of control

COc1c2occc2c(CN)c2ccc(=O)oc12
inactive: dose: 7.5 mg/kg/injection, schedule: Q01DX005 (ip), vehicle: saline 98 % of control | dose: 15.0 mg/kg/injection, schedule: Q01DX005 (ip), vehicle: saline 99 % of control | dose: 30.0 mg/kg/injection, schedule: Q01DX005 (ip), vehicle: saline 97 % of control

CC1=CC(C)C[N+](C)(C)C1 (stereo not drawn)
inactive: dose: 3.12 mg/kg/injection, schedule: Q01DX005 (ip), vehicle: saline 104 % of control | dose: 6.25 mg/kg/injection, schedule: Q01DX005 (ip), vehicle: saline 103 % of control | dose: 12.5 mg/kg/injection, schedule: Q01DX005 (ip), vehicle: saline 100 % of control | dose: 25.0 mg/kg/injection, schedule: Q01DX005 (ip), vehicle: saline 94 % of control

CCOC(=O)/C(C#N)=C/c1ccc(C)o1
inactive: [4] 99 % of control | [5] 100 % of control | [1] 100 % of control and 101 % of control

CCNC(C)(C)C(SSSC(c1ccc(C(F)(F)F)cc1)C(C)(C)NCC)c1ccc(C(F)(F)F)cc1 (stereo not drawn)
inactive: [20] 107 % of control | [21] 107 % of control | [16] 103 % of control

O=C(NC(=O)C(F)(F)F)Nc1cccc(C(F)(F)F)c1
inactive: dose: 50.0 mg/kg/injection, schedule: Q01DX009 (ip), vehicle: saline with Tween-80 114 % of control | dose: 100.0 mg/kg/injection, schedule: Q01DX009 (ip), vehicle: saline with Tween-80 94 % of control | dose: 200.0 mg/kg/injection, schedule: Q01DX009 (ip), vehicle: saline with Tween-80 94 % of control

CCC#CCN(CCCC)CCCC
inactive: [17] 106 % of control | [18] 103 % of control

Cc1noc2c1NC(=O)OC(C)(C)C2
inactive: dose: 12.5 mg/kg/injection, schedule: Q01DX005 (ip), vehicle: Klucel (hydroxypropylcellulose) (HPC) 102 % of control | dose: 25.0 mg/kg/injection, schedule: Q01DX005 (ip), vehicle: Klucel (hydroxypropylcellulose) (HPC) 105 % of control | [10] 100 % of control | [11] 104 % of control | [12] 101 % of control

O=C(O)C1CCC=CCC1
inactive: dose: 50.0 mg/kg/injection, schedule: Q01DX009 (ip), vehicle: other 100 % of control | dose: 100.0 mg/kg/injection, schedule: Q01DX009 (ip), vehicle: other 104 % of control | dose: 200.0 mg/kg/injection, schedule: Q01DX009 (ip), vehicle: other 100 % of control

C[CH2][Sn]([c]1ccccc1)[c]1ccccc1
inactive: dose: 12.5 mg/kg/injection, schedule: Q01DX009 (ip), vehicle: saline 109 % of control | dose: 25.0 mg/kg/injection, schedule: Q01DX009 (ip), vehicle: saline 114 % of control | [20] 108 % of control | [6] 114 % of control and 116 % of control | [21] 115 % of control | [16] 109 % of control

CC1(C)C[C@H]2C=C(C=O)[C@]34C[C@]3(C(=O)OC4O)[C@H]2C1 (stereo partly drawn)
inactive: dose: 0.18 mg/kg/injection, schedule: Q01DX009 (ip), vehicle: Klucel (hydroxypropylcellulose) (HPC) 103 % of control | dose: 0.78 mg/kg/injection, schedule: Q01DX009 (ip), vehicle: Klucel (hydroxypropylcellulose) (HPC) 111 % of control and 120 % of control | dose: 1.56 mg/kg/injection, schedule: Q01DX009 (ip), vehicle: Klucel (hydroxypropylcellulose) (HPC) 106 % of control and 117 % of control

COC(=O)c1cc(=O)n(Cc2ccco2)c(=Nc2ccccc2)s1
inactive: [17] 98 % of control | [18] 97 % of control | [19] 94 % of control

CCOC(=O)c1nc(N(C)C)oc(=O)c1C
inactive: [7] 101 % of control | [8] 97 % of control | [9] 100 % of control
